The results in this text go back to ChEMBL document CHEMBL1141371, “Cytotoxic 5-alkylresorcinol metabolites from the leaves of Grevillea robusta” (J Nat Prod, 2007).

The IC50 is the midpoint of a concentration-inhibition curve. Higher therefore signals weaker potency in that assay.

Assay [1] concerns MCF7. Kind of assay: Cytotoxicity against human MCF7 cells. Format: cell-based.
Assay [2] concerns NCI-H460. Kind of assay: Cytotoxicity against human NCI-H460 cells. Format: cell-based.
The test system of assay [3] is SF-268. The assay can be described thus: Cytotoxicity against human SF268 cells. Format: functional, cell-based.

As to `COc1cc(O)cc2c1-c1c(O)cc(cc1O)CCCCCCCCCCCCCC2`, the 50% inhibitory concentration (IC50) in assay [1] was determined as 30.8 µM; in assay [2], 28.9 µM; in assay [3] it was 31.1 µM.

As for `Oc1cc(O)cc(CCCCCCCCCCCCCCc2cc(O)cc(O)c2)c1` [BISNORSTRIATOL], the IC50 stood at 29.2 µM in assay [1], 28.8 µM in assay [2] and 29.8 µM in assay [3].

On to `Oc1cc(O)c2c(c1)CCCCC/C=C/CCCCCCCc1cc(O)c-2c(O)c1` [DEHYDROGRAVIPHANE], for which the IC50 is 30.7 µM in assay [1], 25.4 µM in assay [2] and 33.4 µM in assay [3].

On to `Oc1cc(O)cc(CCCCC/C=C/CCCCCCCc2cc(O)cc(O)c2)c1`, for which the figures for the IC50 in assay [1], in assay [2] and in assay [3] were 28.6 µM, 27.7 µM and 30.6 µM, respectively.

For `Oc1cc2cc(c1)Oc1c(O)cc(cc1O)[C@H](O)CCCCCCCCCCCCC2`, the values for the IC50 in assay [1], in assay [2] and in assay [3] were 30.6 µM, 27 µM and 32.1 µM, respectively.

As to `Oc1cc2cc(c1)Oc1c(O)cc(cc1O)CCCCCCC/C=C/CCCCC2` [DEHYDROROBUSTOL A], the half-inhibitory concentration (IC50) was 31.8 µM in assay [1], 28 µM in assay [2] and 33.1 µM in assay [3].

On to `COc1cc(O)cc(CCCCCCC/C=C/CCCCCc2cc(O)cc(O)c2)c1` [DEHYDROBISGRAVILLOL], for which the IC50 was 29.8 µM in assay [1], 27 µM in assay [2] and 30.2 µM in assay [3].

Take `Oc1cc2cc(c1)Oc1c(O)cc(cc1O)CCCCCCCCCCCCCC2` [ROBUSTOL]: the 50% inhibitory concentration (IC50) in assay [1] was 32.4 µM; in assay [2], 24 µM; in assay [3], 32.7 µM.

`Oc1cc(O)c2c(c1)CCCCCCCCCCCCCCc1cc(O)c-2c(O)c1`: the IC50 in assay [1] stood at 28.6 µM; in assay [2], 22.8 µM; in assay [3], 27.7 µM.

With `CCCCCCCCCCCCCCCc1cc(O)cc(O)c1` [CARDOL], the IC50 in assay [1] stood at 37 µM; in assay [2] it was 34.2 µM; in assay [3], 39.8 µM.

As to `Oc1cc2cc(c1)Oc1c(O)cc(cc1O)[C@H](O)CCCCCC/C=C/CCCCC2` [DEHYDROGRAVICYCLE], the values for the concentration for half-maximal inhibition (IC50) in assay [1], in assay [2] and in assay [3] were 30 µM, 27.9 µM and 31.3 µM, respectively.

Take `COc1cc(O)cc(CCCCCCCCCCCCCCc2cc(O)cc(O)c2)c1` [BISGRAVILLOL]: the concentration for half-maximal inhibition (IC50) amounted to 29.4 µM in assay [1], 28.7 µM in assay [2] and 29.4 µM in assay [3].

Take `COc1cc(O)cc2c1-c1c(O)cc(cc1O)CCCCCCC/C=C/CCCCC2`: the IC50 was 29.3 µM in assay [1], 27.9 µM in assay [2] and 29.1 µM in assay [3].
